This test addresses T1, human NMB receptor (BB1) (Homo sapiens, UniProt P28336).
T1 construct: expressed in transfected cells; membranes prepared from the cells
Put plainly: BB1 binding assay ([125I][Tyr4]bombesin displacement, CHO-K1 membranes). The note with it: for Ki: Table 1, human NMB receptor binding affinity, Ki from IC50 by Cheng-Prusoff, read-out: NMB Ki. The protocol: In the following experiments, measurement of BB1 and BB2 binding was as follows. CHO-K1 cells stably expressing cloned human NMB (for (BB1 assay) and GRP receptors (for BB2 assay) were routinely grown in Ham's F12 culture medium supplemented with 10% foetal calf serum and 2 mM glutamine. For binding experiments, cells were harvested by trypsinization, and stored frozen at −70° C. in Ham's F12 culture medium containing 5% DMSO until required. On the day of use, cells were thawed rapidly, diluted with an excess of culture medium, and centrifuged for 5 minutes at 2000 g. Cells were resuspended in 50 mM Tris-HCl assay buffer (pH 7.4 at 21° C., containing 0.02% BSA, 40 μg/mL bacitracin, 2 μg/mL chymostatin, 4 μg/mL leupeptin, and 2 μM phosphoramidon), counted, and polytronned (setting 5, 10 sec) before centrifuging for 10 minutes at 28,000 g. The final pellet was resuspended in assay buffer to a final cell concentration of 1.5×10^5/mL. For binding assays, […] aliquots of membranes were incubated with [^125I][Tyr^4]bombesin (<0.1 nM) in the presence and absence of test compounds (final assay volume 250 μL) for 60 minutes and 90 minutes for NMB and GRP receptors, respectively. Nonspecific binding was defined by 1 μM bombesin. Assays were terminated by rapid filtration under vacuum onto Whatman GF/C filters presoaked in 0.2% PEI for >2 hours, and washed 50 mM Tris-HCl (pH 6.9 at 21° C.; 6×1 mL). Radioactivity bound was determined using a gamma counter.
All competition data was analysed using nonlinear regression utilizing iterative curve-plotting procedures in Prism® (GraphPad Software Inc., San Diego, USA). IC50 values were corrected to Ki values using the Cheng-Prusoff equation (Cheng Y., Prusoff W. H., Biochem. Pharmacol. 22: 3099-3108, 1973). obtained are listed in Table 1.

[1] abbreviates: Table 3, N-acyl derivatives of Intermediate III-7.

Data on 43 compounds can be found in patent US20020169101A1, “Treatment of sexual dysfunction” (priority 1999, published 2002).

Where two headings read alike, the source gives them in different places.

By IC50 is commonly meant the concentration needed to halve the response being measured. Low readings indicate greater potency in that assay, high ones weaker potency in that assay. For orientation: Ki means the dissociation constant of the complex between target and ligand, obtained from inhibition or displacement.

T1 sequence (P28336 whole entry): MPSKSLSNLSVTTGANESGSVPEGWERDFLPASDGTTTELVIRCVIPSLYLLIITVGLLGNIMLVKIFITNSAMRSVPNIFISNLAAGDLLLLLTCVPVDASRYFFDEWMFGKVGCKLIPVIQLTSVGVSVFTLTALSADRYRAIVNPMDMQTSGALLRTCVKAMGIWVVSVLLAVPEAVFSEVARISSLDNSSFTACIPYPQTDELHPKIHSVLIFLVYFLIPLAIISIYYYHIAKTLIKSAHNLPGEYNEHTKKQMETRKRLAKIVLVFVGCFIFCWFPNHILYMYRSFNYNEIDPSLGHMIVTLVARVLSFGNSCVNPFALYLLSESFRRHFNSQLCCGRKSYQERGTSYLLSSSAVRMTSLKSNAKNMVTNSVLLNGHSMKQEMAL

In turn, `COc1cc(C)ccc1S(=O)(=O)N[C@@](C)(Cc1c[nH]c2ccccc12)C(=O)NCC1(c2ccccn2)CCCCC1` [Example 159] returned an IC50 of 445 nM.

As to `C[C@@](Cc1c[nH]c2ccccc12)(NS(=O)(=O)c1cnc(Cl)c(Br)c1)C(=O)NCC1(c2ccccn2)CCCCC1` [Example 161], the IC50 came out at 187 nM.

Under setting [1], `C[C@@](Cc1c[nH]c2ccccc12)(NC(=O)c1ccoc1)C(=O)NCC1(c2ccccn2)CCCCC1` [Example 59] yielded an IC50 of 1200 nM.

Take `C[C@@](Cc1c[nH]c2ccccc12)(NS(=O)(=O)c1ccc(C(F)(F)F)cc1)C(=O)NCC1(c2ccccn2)CCCCC1` [Example 127]: the IC50 was 553 nM.

The compound `C[C@@](Cc1c[nH]c2ccccc12)(NS(=O)(=O)c1cccc2nonc12)C(=O)NCC1(c2ccccn2)CCCCC1` [Example 139] had an IC50 of 507 nM.

Take `C[C@@](Cc1c[nH]c2ccccc12)(NCc1cc2ccccc2o1)C(=O)NCC1(c2ccccn2)CCCCC1` [Example 26]: the Ki stood at 2400 nM.

`COC(=O)c1ccccc1S(=O)(=O)N[C@@](C)(Cc1c[nH]c2ccccc12)C(=O)NCC1(c2ccccn2)CCCCC1` [Example 155] had a half-inhibitory concentration (IC50) of 242 nM.

Regarding `C[C@@](Cc1c[nH]c2ccccc12)(NS(=O)(=O)c1ccc(-c2ccon2)s1)C(=O)NCC1(c2ccccn2)CCCCC1` [Example 141], the IC50 is 534 nM.

On to `Cn1cccc1C(=O)N[C@@](C)(Cc1c[nH]c2ccccc12)C(=O)NCC1(c2ccccn2)CCCCC1` [Example 63, 1-Methyl-1H-pyrrole-2-carboxylic acid {(S)-2-(1H-indol-3-yl)-1-methyl-1-[(1-pyridin-2-yl-cyclohexylmethyl)-carbamoyl]-ethyl}-amide], for which, under setting [1], the half-inhibitory concentration (IC50) is 4820 nM.

Regarding `Cc1noc(C)c1S(=O)(=O)N[C@@](C)(Cc1c[nH]c2ccccc12)C(=O)NCC1(c2ccccn2)CCCCC1` [Example 136], the IC50 was found to be 515 nM.

Consider `CN(C)c1cccc2c(S(=O)(=O)N[C@@](C)(Cc3c[nH]c4ccccc34)C(=O)NCC3(c4ccccn4)CCCCC3)cccc12` [Example 117], for which the IC50 was 1300 nM.

As to `Cc1nn(C)c(Cl)c1S(=O)(=O)N[C@@](C)(Cc1c[nH]c2ccccc12)C(=O)NCC1(c2ccccn2)CCCCC1` [Example 135], the IC50 turned out to be 1250 nM.

In the case of `CC(C)(C)c1ccc(S(=O)(=O)N[C@@](C)(Cc2c[nH]c3ccccc23)C(=O)NCC2(c3ccccn3)CCCCC2)cc1` [Example 164], the IC50 is 406 nM.

The compound `C[C@@](Cc1c[nH]c2ccccc12)(NC(=O)c1cc2ccccc2cn1)C(=O)NCC1(c2ccccn2)CCCCC1` [Example 77, Isoquinoline-3-carboxylic acid {(S)-2-(1H-indol-3-yl)-1-methyl-1-[(1-pyridin-2-yl-cyclohexylmethyl)-carbamoyl]-ethyl}-amide] gave an IC50 under setting [1] of 1360 nM.

The compound `C[C@@](Cc1c[nH]c2ccccc12)(NS(=O)(=O)c1ccc(OC(F)(F)F)cc1)C(=O)NCC1(c2ccccn2)CCCCC1` [Example 151] came in with an IC50 of 635 nM.

As for `C[C@@](Cc1c[nH]c2ccccc12)(NS(=O)(=O)c1ccc([N+](=O)[O-])cc1[N+](=O)[O-])C(=O)NCC1(c2ccccn2)CCCCC1` [Example 162], the half-maximal inhibitory concentration (IC50) was found to be 475 nM.

As to `C[C@@](Cc1c[nH]c2ccccc12)(NS(=O)(=O)c1ccccc1C#N)C(=O)NCC1(c2ccccn2)CCCCC1` [Example 134], the half-inhibitory concentration (IC50) worked out at 408 nM.

On to `C[C@@](Cc1c[nH]c2ccccc12)(NS(=O)(=O)c1ccc(Cl)cc1[N+](=O)[O-])C(=O)NCC1(c2ccccn2)CCCCC1` [Example 149], for which the 50% inhibitory concentration (IC50) was determined as 513 nM.

Consider `C[C@@](Cc1c[nH]c2ccccc12)(NC(=O)OCc1ccc2ncccc2c1)C(=O)NCC1(c2ccccn2)CCCCC1` [Example 110, {(S)-2-(1H-Indol-3-y1)-1-methyl-1-[(1-pyridin-2-yl-cyclohexylmethyl)-carbamoyl]-ethyl}-carbamic acid quinolin-6-ylmethyl ester], for which the IC50 (second 'TABLE 4', N-terminal urethane derivatives of Intermediate III-7) was found to be 171 nM.

Under setting [1], `C[C@@](Cc1c[nH]c2ccccc12)(NC(=O)c1ccccn1)C(=O)NCC1(c2ccccn2)CCCCC1` [Example 57] came in with an IC50 of 3710 nM.

On to `C[C@@](Cc1c[nH]c2ccccc12)(NS(=O)(=O)c1ccc(-c2ccccn2)s1)C(=O)NCC1(c2ccccn2)CCCCC1` [Example 160], for which the IC50 is 344 nM.

For `C[C@@](Cc1c[nH]c2ccccc12)(Nc1ccccc1-c1ccccc1)C(=O)NCC1(c2ccccn2)CCCCC1` [Example 21, (S)-2-(Biphenyl-2-ylamino)-3-(1H-indol-3-yl)-2-methyl-N-(1-pyridin-2-yl-cyclohexylmethyl)-propionamide], the Ki amounted to 824 nM.

As to `Cc1ccc(S(=O)(=O)N[C@@](C)(Cc2c[nH]c3ccccc23)C(=O)NCC2(c3ccccn3)CCCCC2)cc1` [Example 112], the concentration for half-maximal inhibition (IC50) worked out at 557 nM.

Take `C[C@@](Cc1c[nH]c2ccccc12)(NS(=O)(=O)c1cccc(C#N)c1)C(=O)NCC1(c2ccccn2)CCCCC1` [Example 143]: the half-inhibitory concentration (IC50) is 460 nM.

As to `Cc1cc(S(=O)(=O)N[C@@](C)(Cc2c[nH]c3ccccc23)C(=O)NCC2(c3ccccn3)CCCCC2)c(Cl)cc1Cl` [Example 165], the IC50 amounted to 172 nM.

In the case of `C[C@@](Cc1c[nH]c2ccccc12)(NC(=O)c1ccco1)C(=O)NCC1(c2ccccn2)CCCCC1` [Example 60], under setting [1], the IC50 is 1200 nM.

The compound `COC(=O)c1sccc1S(=O)(=O)N[C@@](C)(Cc1c[nH]c2ccccc12)C(=O)NCC1(c2ccccn2)CCCCC1` [Example 140] had a 50% inhibitory concentration (IC50) of 167 nM.

On to `C[C@@](Cc1c[nH]c2ccccc12)(NS(=O)(=O)c1ccc(S(=O)(=O)c2ccccc2)s1)C(=O)NCC1(c2ccccn2)CCCCC1` [Example 150], for which the IC50 was 297 nM.

`C[C@@](Cc1c[nH]c2ccccc12)(NS(=O)(=O)c1ccc(Cl)c(Cl)c1)C(=O)NCC1(c2ccccn2)CCCCC1` [Example 125] returned an IC50 of 216 nM.

Compound `C[C@@](Cc1c[nH]c2ccccc12)(NS(=O)(=O)c1ccc(Cl)s1)C(=O)NCC1(c2ccccn2)CCCCC1` [Example 128] registered an IC50 of 404 nM.

Consider `C[C@@](Cc1c[nH]c2ccccc12)(NS(=O)(=O)c1ccc(S(C)(=O)=O)cc1)C(=O)NCC1(c2ccccn2)CCCCC1` [Example 163], for which the IC50 is 1040 nM.

`Cc1nc(S(=O)(=O)N[C@@](C)(Cc2c[nH]c3ccccc23)C(=O)NCC2(c3ccccn3)CCCCC2)cn1C` [Example 144] returned an IC50 of 2480 nM.

As to `COc1ccc(S(=O)(=O)N[C@@](C)(Cc2c[nH]c3ccccc23)C(=O)NCC2(c3ccccn3)CCCCC2)cc1OC` [Example 132], the IC50 came out at 608 nM.

For the compound `Cc1cc(C(=O)N[C@@](C)(Cc2c[nH]c3ccccc23)C(=O)NCC2(c3ccccn3)CCCCC2)no1` [Example 62], under setting [1], the IC50 was 4130 nM.

In turn, `CCCCc1ccc(S(=O)(=O)N[C@@](C)(Cc2c[nH]c3ccccc23)C(=O)NCC2(c3ccccn3)CCCCC2)cc1` [Example 168] yielded an IC50 of 492 nM.

On to `C[C@@](Cc1c[nH]c2ccccc12)(Nc1cccc(-c2ccccc2)n1)C(=O)NCC1(c2ccccn2)CCCCC1` [Example 23, (S)-3-(1H-Indol-3-yl)-2-methyl-2-(6-phenyl-pyridin-2-ylamino)-N-(1-pyridin-2-yl-cyclohexylmethyl)-propionamide], for which the Ki worked out at 3370 nM.

`C[C@@](Cc1c[nH]c2ccccc12)(NS(=O)(=O)c1ccccc1F)C(=O)NCC1(c2ccccn2)CCCCC1` [Example 114] returned an IC50 of 267 nM.

Consider `C[C@@](Cc1c[nH]c2ccccc12)(NS(=O)(=O)c1cccc2cccc([N+](=O)[O-])c12)C(=O)NCC1(c2ccccn2)CCCCC1` [Example 146], for which the IC50 was 177 nM.

On to `C[C@@](Cc1c[nH]c2ccccc12)(NS(=O)(=O)c1ccc([N+](=O)[O-])cc1)C(=O)NCC1(c2ccccn2)CCCCC1` [Example 123], for which the IC50 amounted to 515 nM.

In the case of `C[C@@](Cc1c[nH]c2ccccc12)(NS(=O)(=O)c1cccs1)C(=O)NCC1(c2ccccn2)CCCCC1` [Example 119], the IC50 came to 232 nM.

In turn, `C[C@@](Cc1c[nH]c2ccccc12)(NS(=O)(=O)c1ccc2ccccc2c1)C(=O)NCC1(c2ccccn2)CCCCC1` [Example 118] had an IC50 of 322 nM.

Turning to `C[C@@](Cc1c[nH]c2ccccc12)(NC(=O)c1ccc2[nH]nnc2c1)C(=O)NCC1(c2ccccn2)CCCCC1` [Example 73, 1H-Benzotriazole-5-carboxylic acid {(S)-2-(1H-indol-3-yl)-1-methyl-1-[(1-pyridin-2-yl-cyclohexylmethyl)-carbamoyl]-ethyl}-amide], the 50% inhibitory concentration (IC50) under setting [1] was found to be 3170 nM.

Compound `C[C@@](Cc1c[nH]c2ccccc12)(NS(=O)(=O)Cc1ccccc1[N+](=O)[O-])C(=O)NCC1(c2ccccn2)CCCCC1` [Example 142] displayed a half-maximal inhibitory concentration (IC50) of 430 nM.
